The source made the active and inactive calls. No cut-off for these calls is given here.
What was measured:
[1] = tested on: Rattus norvegicus; assay: Effect on HLA-DRB1 gene expression in epididymal white adipose tissue of Zucker rat sub-chronic fa/fa prediabetic model at 10 mg/kg, po qd for 15 days by microarray analysis relative to control; format: functional
[2] = tested on: Rattus norvegicus; assay: Toxicity in Zucker rat sub-chronic fa/fa prediabetic model assessed as triglyceride level per gram liver at 10 mg/kg, po qd for 31 days measured on day 32 (reference value: 163.4 +/- 8.3 mg); format: organism-based; settings: in vivo, 744 h
[3] = Drug uptake in fat tissue of Zucker rat sub-chronic fa/fa prediabetic model at 12.5 mg/kg, po qd for 11 days; format: ADME, organism-based, Adipose tissue; settings: read-out: Drug uptake
[4] = tested on: Rattus norvegicus; assay: Increase in ERRalpha mRNA expression in epididymal white adipose tissue of Zucker rat sub-chronic fa/fa prediabetic model at 10 mg/kg, po qd for 15 days by RT-PCR method; format: functional, organism-based
[5] = tested on: Rattus norvegicus; assay: Effect on DBT gene expression in epididymal white adipose tissue of Zucker rat sub-chronic fa/fa prediabetic model at 10 mg/kg, po qd for 15 days by microarray analysis relative to control; format: functional
[6] = tested on: Rattus norvegicus; assay: Effect on ABCG1 gene expression in epididymal white adipose tissue of Zucker rat sub-chronic fa/fa prediabetic model at 10 mg/kg, po qd for 15 days by microarray analysis relative to control; format: functional
[7] = Half life in CD-1 mouse at 5 mg/kg, iv by LC-MS analysis; format: ADME, organism-based; settings: in vivo
[8] = tested on: Rattus norvegicus; assay: Effect on CD3D gene expression in epididymal white adipose tissue of Zucker rat sub-chronic fa/fa prediabetic model at 10 mg/kg, po qd for 15 days by microarray analysis relative to control; format: functional
[9] = tested on: Rattus norvegicus; assay: Effect on NDUFS4 gene expression in epididymal white adipose tissue of Zucker rat sub-chronic fa/fa prediabetic model at 10 mg/kg, po qd for 15 days by microarray analysis relative to control; format: functional
[10] = tested on: Rattus norvegicus; assay: Toxicity in […] model assessed as liver weight at 50 mg/kg, po qd for 31 days measured on day 32 (reference value: 2.77 +/- 0.16 g); format: organism-based; settings: in vivo, 744 h
[11] = Drug uptake in heart of Zucker rat sub-chronic fa/fa prediabetic model at 12.5 mg/kg, po qd for 11 days; format: ADME, organism-based; settings: read-out: Drug uptake
[12] = target: T1, Steroid hormone receptor ERR1 (Homo sapiens, UniProt P11474); assay: Antagonist activity at His6-tagged ERRalpha LBD (unknown origin) assessed as inhibition of GST-tagged SRC-2 co-activator peptide recruitment after 18 hrs by TR-FRET assay
T1 sequence (P11474 whole entry): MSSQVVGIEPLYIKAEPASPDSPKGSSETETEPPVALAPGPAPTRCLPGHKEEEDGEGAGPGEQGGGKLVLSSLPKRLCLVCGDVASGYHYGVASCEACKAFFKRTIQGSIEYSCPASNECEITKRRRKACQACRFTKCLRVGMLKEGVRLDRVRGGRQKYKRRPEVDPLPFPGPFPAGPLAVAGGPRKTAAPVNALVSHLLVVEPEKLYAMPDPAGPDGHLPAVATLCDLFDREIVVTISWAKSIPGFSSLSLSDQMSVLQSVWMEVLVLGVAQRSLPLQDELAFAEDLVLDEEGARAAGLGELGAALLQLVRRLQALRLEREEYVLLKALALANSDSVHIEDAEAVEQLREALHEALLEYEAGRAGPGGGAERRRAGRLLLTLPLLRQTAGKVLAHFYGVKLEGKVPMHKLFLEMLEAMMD

[13] = tested on: Rattus norvegicus; assay: Toxicity in Zucker rat sub-chronic fa/fa prediabetic model assessed as change in body weight at 50 mg/kg, po qd for 29 days measured on day 1 to 29 during compound dosing (reference value: 140 +/- 7 g); format: organism-based; settings: in vivo, 696 h
[14] = tested on: Rattus norvegicus; assay: Toxicity in Zucker rat sub-chronic fa/fa prediabetic model assessed as insulin level per gram pancreas at 3 mg/kg, po qd for 31 days measured on day 32 (reference value: 55.2 +/- 5.5 ug); format: organism-based; settings: in vivo, 744 h
[15] = tested on: Rattus norvegicus; assay: Effect on ECI2 gene expression in epididymal white adipose tissue of Zucker rat sub-chronic fa/fa prediabetic model at 10 mg/kg, po qd for 15 days by microarray analysis relative to control; format: functional
[16] = tested on: Rattus norvegicus; assay: Toxicity in […] model assessed as serum AST level at 50 mg/kg, po qd for 31 days measured on day 32 (reference value: 180 +/- 26 U/L); format: organism-based; settings: in vivo, 744 h
[17] = tested on: Rattus norvegicus; assay: Toxicity in Zucker rat sub-chronic fa/fa prediabetic model assessed as serum triglyceride level at 50 mg/kg, po qd for 31 days measured on day 32 (reference value: 1382 +/- 268 mg/dl); format: organism-based; settings: in vivo, 744 h
[18] = Drug uptake in kidney of Zucker rat sub-chronic fa/fa prediabetic model at 12.5 mg/kg, po qd for 11 days; format: ADME, organism-based; settings: read-out: Drug uptake
[19] = tested on: Rattus norvegicus; assay: Effect on MSMO1 gene expression in epididymal white adipose tissue of Zucker rat sub-chronic fa/fa prediabetic model at 10 mg/kg, po qd for 15 days by microarray analysis relative to control; format: functional
[20] = tested on: Rattus norvegicus; assay: Effect on ACOX1 gene expression in epididymal white adipose tissue of Zucker rat sub-chronic fa/fa prediabetic model at 10 mg/kg, po qd for 15 days by microarray analysis relative to control; format: functional
[21] = AUC (0 to 24 hrs) in […] at 15 mg/kg administered via oral gavage by LC-MS analysis; format: ADME, organism-based; set-up: dose 15 mg/kg, time < 24 hr, route oral; settings: in vivo
[22] = tested on: Rattus norvegicus; assay: Antidiabetic activity in Zucker rat sub-chronic fa/fa prediabetic model assessed as serum adiponectin level at 3 mg/kg, po qd for 4 days by ELISA (reference value: 9.1%); format: functional
[23] = tested on: Rattus norvegicus; assay: Toxicity in Zucker rat sub-chronic fa/fa prediabetic model assessed as serum BUN level at 1 mg/kg, po qd for 31 days measured on day 32 (reference value: 28.3 +/- […]); format: organism-based; settings: in vivo, 744 h
[24] = tested on: Rattus norvegicus; assay: Toxicity in Zucker rat sub-chronic fa/fa prediabetic model assessed as triglyceride level per gram liver at 1 mg/kg, po qd for 31 days measured on day 32 (reference value: 163.4 +/- 8.3 mg); format: organism-based; settings: in vivo, 744 h
[25] = target: Retinoic acid receptor RXR-beta (Homo sapiens, UniProt P28702); assay: Antagonist activity at recombinant GST-tagged human RXRbeta LBD assessed as inhibition of all-trans-retinoic acid-induced fluorescein-labeled coactivator peptide recruitment preincubated with enzyme followed by coactivator addition by LanthaScreen TR-FRET assay
Sequence of Retinoic acid receptor RXR-beta (P28702 whole entry, the tested form may be a part): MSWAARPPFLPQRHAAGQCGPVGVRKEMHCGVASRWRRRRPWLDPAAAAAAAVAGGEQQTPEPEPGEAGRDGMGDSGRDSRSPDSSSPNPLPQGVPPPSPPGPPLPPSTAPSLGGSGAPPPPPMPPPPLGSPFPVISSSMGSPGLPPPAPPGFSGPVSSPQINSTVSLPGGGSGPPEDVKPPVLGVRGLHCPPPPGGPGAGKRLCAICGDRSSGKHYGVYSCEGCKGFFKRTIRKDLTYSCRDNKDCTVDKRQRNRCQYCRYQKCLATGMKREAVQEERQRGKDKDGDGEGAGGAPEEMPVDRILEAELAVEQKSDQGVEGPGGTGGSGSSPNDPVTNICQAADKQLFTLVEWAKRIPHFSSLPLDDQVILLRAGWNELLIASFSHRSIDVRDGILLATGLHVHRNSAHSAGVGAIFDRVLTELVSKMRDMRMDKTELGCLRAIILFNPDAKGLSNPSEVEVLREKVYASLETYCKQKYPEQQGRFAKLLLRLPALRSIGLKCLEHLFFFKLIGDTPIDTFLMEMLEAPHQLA

[26] = Drug uptake in plasma of Zucker rat sub-chronic fa/fa prediabetic model at 12.5 mg/kg, po qd for 11 days; format: ADME, organism-based
[27] = tested on: Rattus norvegicus; assay: Antidiabetic activity in Zucker rat sub-chronic fa/fa prediabetic model assessed as blood insulin AUC (0 to 120 min) at 3 mg/kg, po qd for 31 days measured on day 29 post dose (reference value: 1503 +/- 160 ug.min/L); format: functional, organism-based; set-up: dose 3 mg/kg, time < 2 hr
[28] = tested on: Rattus norvegicus; assay: Toxicity in Zucker rat sub-chronic fa/fa prediabetic model assessed as food intake at 1 mg/kg, po qd for 29 days measured on day 1 to 29 during compound dosing (reference value: 969 +/- 18 g); format: organism-based; settings: in vivo, 696 h

CN1CC[C@@H](N2C(=O)S/C(=C\c3ccc4c(cnn4Cc4ccc(Cl)cc4C(F)(F)F)c3)C2=O)[C@H](F)C1
fold change (FC) [1]: -1.334 | Activity [2]: 93 mg | concentration at 264 h [3]: 58100 ng/g | Activity [4]: Active | fold change (FC) [5]: -1.217 | fold change (FC) [6]: 1.488 | half-life [7]: 708 min | fold change (FC) [8]: -1.256 | fold change (FC) [9]: 1.239 | Activity [10]: 2.61 g | concentration at 264 h [11]: 1700 ng/g | IC50 [12]: 23 nM | Activity [13]: 157 g | Activity [14]: 90.7 µg | fold change (FC) [15]: 1.453 | Activity [16]: 199 U/L | Activity [17]: 198 mg/dL | concentration at 264 h [18]: 2660 ng/g | fold change (FC) [19]: -1.271 | fold change (FC) [20]: 1.495 | AUC(0-t) at 24 h [21]: 34500 ng·h/mL | Activity [22]: 11.1% | Activity [23]: 26.9 mg/dL | Activity [24]: 122 mg | IC50 [25]: > 10 µM | concentration at 264 h [26]: 814 ng/mL | AUC [27]: 16.7 ng·h/mL | Activity [28]: 975 g
